The source of these data is ChEMBL document CHEMBL5725801, “Fused heterocyclic compounds as CaM kinase inhibitors” (2018).

The term EC50 denotes the midpoint of the concentration-response curve.

SMILES strings stand for the structures.

A short description of the assay: CaMKII Cell-Based Activity: CaMKII activity in neonatal rat ventricular myocytes (NRVM) was measured by monitoring the phosphorylation level of phospholamban using high-content imaging. NRVMs were plated in a clear bottom 384-well plate in medium supplemented with 10% fetal bovine serum (FBS) and incubated at 37° C., 5% CO2 overnight. The medium was changed to a serum-free medium and compounds were dosed to the cells. The cells were incubated at 37° C., 5% CO2 for 4 hours and were then treated with 100 nM ATX-II (Alomone Labs) to activate CaMKII. 10 minutes after the addition of ATX-II, the cells were fixed with 4% formaldehyde followed by permeabilization with 0.1% triton X100. The fixed cells were stained with an anti-phospho-phospholamban primary antibody (Santa Cruz Biotechnology) and an Alexa488-labeled anti-rabbit IgG secondary antibody (Life Technologies Corporation) as well as Hoechst 33342 (Life Technologies Corporation). The cells were imaged using an ArrayScan VTI (Cellomics) and analyzed for cells containing a positive fluorescent signal at 485 nm, reported as % responder. The % responders were plotted against the compound concentration to determine the compounds EC50.
Consider `CCN(CC)[C@@H](C)CNC(=O)c1cc(-c2cnn3ccc(-c4cccs4)nc23)nc(N2CCC(O)CC2)c1`, for which the EC50 is 46.6 nM. In turn, `CCN(CC)[C@@H](C)CNC(=O)c1cc(-c2cnn3ccc(-c4cccs4)nc23)nc(N2CC(O)C2)c1` had an EC50 of 17.7 nM. As to `CCN(CC)[C@@H](C)CNC(=O)c1cc(-c2cnn3ccc(-c4cccs4)nc23)nc(N2CC(OC)C2)c1`, the midpoint of the response, the EC50, lay at 13.7 nM.

Take `COc1cc(C(=O)N2CCCC[C@H]2CN)cc(-c2cnn3ccc(-c4ccccc4)nc23)n1`: the EC50 was determined as 288 nM. This EC50 is about 21-fold higher than that of the molecule before.

Consider `CCN[C@@H](C)CNC(=O)c1cc(-c2cnn3ccc(-c4cccs4)nc23)nc(N2CC(O)C2)c1`, for which the EC50 came out at 604 nM.

`CCN(CC)[C@@H](C)CNC(=O)c1cc(NS(=O)(=O)C(C)C)nc(-c2cnn3ccc(-c4cccs4)nc23)c1`: it took 115 nM to reach a half-maximal effect (EC50). The figure for `CCN(CC)[C@@H](C)CNC(=O)c1cc(NCCN(C)C)nc(-c2cnn3ccc(-c4ccccc4)nc23)c1` is 31.9 nM; for `COc1cc(C(=O)N2CCCC[C@@H]2CN)cc(-c2cnn3ccc(-c4ccccc4)nc23)n1` it is 316 nM. For the molecule `CCN(CC)[C@@H](C)CNC(=O)c1cc(NCC2(N3CCCC3)COC2)nc(-c2cnn3ccc(-c4cccs4)nc23)c1`, the EC50 was 232 nM. The result for `CCN(CC)[C@@H](C)CNC(=O)c1cc(-c2cnn3ccc(-c4cccs4)nc23)nc(N2CC(S(=O)(=O)NC)C2)c1` reads 50.5 nM. In turn, `CCN[C@@H](C)CNC(=O)c1cc(-c2cnn3ccc(-c4cccs4)nc23)nc(N2CC(OC)C2)c1` returned an EC50 of 90.5 nM. The figure for `Cc1cc(C(=O)N2CCC[C@@H]2CN)cc(-c2cnn3ccc(-c4ccccc4)nc23)n1` is 211 nM; for `CCN(CC)[C@@H](C)CNC(=O)c1cc(-c2cnn3ccc(-c4cccs4)nc23)nc(N2CCC(O)C(F)(F)C2)c1` (some centres not stated) it is 65.5 nM. The figure for `CCN(CC)[C@@H](C)CNC(=O)c1cc(-c2cnn3ccc(-c4cccs4)nc23)nc(N2CC(NS(=O)(=O)Cc3ccon3)C2)c1` is 27 nM; for `CCN(CC)[C@@H](C)CNC(=O)c1cc(-c2cnn3ccc(-c4ccns4)nc23)nc(N2CC(OC)C2)c1` it is 13.9 nM. The result for `CCN(CC)[C@@H](C)CNC(=O)c1cc(-c2cnn3ccc(-c4cccs4)nc23)nc(N2CCC(C)(O)CC2)c1` reads 46 nM; that for `CN(C)c1cc(C(=O)N2CCCC[C@H]2CN)cc(-c2cnn3ccc(-c4ccccc4)nc23)n1`, 418 nM; that for `CCN(CC)[C@@H](C)CNC(=O)c1cc(-c2cnn3ccc(-c4cccs4)nc23)nc(N2CC(S(=O)(=O)NC3CC3)C2)c1`, 51 nM. With `CCN(CC)[C@@H](C)CNC(=O)c1cc(-c2cnn3ccc(-c4ccsc4)nc23)nc(N2CC(OC)C2)c1`, a half-maximal effect (EC50) was put at 14.9 nM. The figure for `Cc1cnc(-c2cnn3ccc(-c4ccccc4)nc23)cc1C(=O)N1CCCC[C@@H]1[C@@H](C)N` is 66.4 nM; for `Cc1cnc(-c2cnn3ccc(-c4ccccc4)nc23)cc1C(=O)N1CCCC[C@@H]1CN` it is 33.3 nM; for `CCN(CC)[C@@H](C)CNC(=O)c1cc(-c2cnn3ccc(-c4ccccc4)nc23)nc(N2CC(OC)C2)c1` it is 16.9 nM. For `CCN(CC)[C@@H](C)CNC(=O)c1cc(-c2cnn3ccc(-c4cccs4)nc23)nc(N2CC(NS(=O)(=O)CC)C2)c1`, the EC50 is 25.7 nM. Consider `CCN(CC)[C@@H](C)CNC(=O)c1cc(NS(=O)(=O)C2CC2)nc(-c2cnn3ccc(-c4cccs4)nc23)c1`, for which the response was half-maximal at 95.9 nM (EC50). `CCN(CC)[C@@H](C)CNC(=O)c1cc(-c2cnn3ccc(-c4cccs4)nc23)nc(N(C)S(C)(=O)=O)c1` came in with an EC50 of 9.6 nM.

`NC[C@@H]1CCCCN1C(=O)c1cc(Cl)nc(-c2cnn3ccc(-c4ccccc4)nc23)c1` had an EC50 of 213 nM. In the case of `CCN(CC)[C@@H](C)CNC(=O)c1cc(-c2cnn3ccc(-c4cccs4)nc23)nc(N2CCC2)c1`, the EC50 was 40.2 nM. In turn, `C[C@H](N)CNC(=O)c1cc(-c2cnn3ccc(-c4cccs4)nc23)nc(N2CC(O)C2)c1` yielded an EC50 of 2480 nM. Turning to `NC[C@H]1CCCCN1C(=O)c1cc(-c2cnn3ccc(-c4ccccc4)nc23)ncc1N`, the half-maximal effective concentration (EC50) was 23.3 nM.

On to `CCN(CC)[C@@H](C)CNC(=O)c1cc(-c2cnn3ccc(-c4cccs4)nc23)nc(N2CC(NS(=O)(=O)C(C)C)C2)c1`, for which the EC50 worked out at 31.5 nM.

As to `CCN(CC)[C@@H](C)CNC(=O)c1cc(-c2cnn3ccc(-c4cccs4)nc23)nc(N2CC(F)C2)c1`, the half-maximal effective concentration (EC50) stood at 20.5 nM. As for `CCN(CC)[C@@H](C)CNC(=O)c1cc(-c2cnn3ccc(-c4cccs4)nc23)nc(N2CC(C)(C)C2)c1`, the response was half-maximal at 93.8 nM (EC50). `CC(C)(C)c1cc(C(=O)N2CCCC[C@@H]2CN)cc(-c2cnn3ccc(-c4ccccc4)nc23)n1` yielded an EC50 of 46.6 nM. Molecule `CCN[C@@H](C)CNC(=O)c1cc(-c2cnn3ccc(-c4ccccc4)nc23)nc(N2CC(OC)C2)c1` showed an EC50 of 145 nM. The figure for `CCN(CC)[C@@H](C)CNC(=O)c1cc(NS(=O)(=O)CC)nc(-c2cnn3ccc(-c4cccs4)nc23)c1` is 126 nM; for `CCN(CC)[C@@H](C)CNC(=O)c1cc(-c2cnn3ccc(-c4cccs4)nc23)nc(N2CC(S(C)(=O)=O)C2)c1` it is 31.3 nM; for `COC1CN(c2cc(C(=O)NCC34CCCN3CCC4)cc(-c3cnn4ccc(-c5ccccc5)nc34)n2)C1` it is 69.6 nM. `CCN(CC)[C@@H](C)CNC(=O)c1cc(-c2cnn3ccc(-c4cccs4)nc23)nc(N2CC(C#N)C2)c1` yielded an EC50 of 9.07 nM. Molecule `NC[C@H]1CCCCN1C(=O)c1cc(-c2cnn3ccc(-c4ccccc4)nc23)ncc1Cl` displayed an EC50 of 35.2 nM. Against the preceding molecule, the EC50 is about 3.9-fold higher.

`COC1CN(c2cc(C(=O)NC[C@H](C)N)cc(-c3cnn4ccc(-c5cccs5)nc34)n2)C1`: a half-maximal effect (EC50) was put at 139 nM. Against the preceding molecule, the EC50 is about 3.9-fold higher. For `CCN(CC)[C@@H](C)CNC(=O)c1cc(NCCN(C)C)nc(-c2cnn3ccc(-c4cccs4)nc23)c1`, the EC50 was 59 nM. In the case of `CCN(CC)[C@@H](C)CNC(=O)c1cc(-c2cnn3ccc(-c4cccs4)nc23)nc(N2CC(NS(=O)(=O)C3CC3)C2)c1`, the midpoint of the response, the EC50, lay at 28.1 nM. The result for `CCN(CC)[C@@H](C)CNC(=O)c1cc(-c2cnn3ccc(-c4cccs4)nc23)nc(N2CC(C(F)(F)F)C2)c1` reads 54.4 nM; that for `CNc1cnc(-c2cnn3ccc(-c4ccccc4)nc23)cc1C(=O)N1CCCC[C@@H]1CN`, 21.8 nM. Turning to `CCN(CC)[C@@H](C)CNC(=O)c1cc(NS(C)(=O)=O)nc(-c2cnn3ccc(-c4cccs4)nc23)c1`, a half-maximal response (EC50) required 107 nM. The figure for `CCN(CC)[C@@H](C)CNC(=O)c1cc(-c2cnn3ccc(-c4cccs4)nc23)nc(N2CC(F)(F)C2)c1` is 17.3 nM; for `CCN(CC)[C@@H](C)CNC(=O)c1cc(-c2cnn3ccc(-c4cccs4)nc23)nc(N2CC(OC(F)F)C2)c1` it is 19.9 nM.

With `CCN(CC)[C@@H](C)CNC(=O)c1cc(-c2cnn3ccc(-c4cccs4)nc23)nc(N2CCn3ccnc3C2)c1`, the response was half-maximal at 121 nM (EC50). In turn, `CCN(CC)[C@@H](C)CNC(=O)c1cc(-c2cnn3ccc(-c4cccs4)nc23)nc(N2CCCS2(=O)=O)c1` came in with an EC50 of 11.2 nM.

In turn, `CCN(CC)[C@@H](C)CNC(=O)c1cc(-c2cnn3ccc(-c4cncnc4)nc23)nc(N2CC(OC)C2)c1` had an EC50 of 519 nM.

As to `COC1CN(c2cc(C(=O)NC[C@H](C)N)cc(-c3cnn4ccc(-c5ccccc5)nc34)n2)C1`, it took 122 nM to reach a half-maximal effect (EC50). With `CCOC1CN(c2cc(C(=O)NC[C@H](C)N(CC)CC)cc(-c3cnn4ccc(-c5cccs5)nc34)n2)C1`, the response was half-maximal at 9.45 nM (EC50). Against the preceding molecule, the EC50 is about 13-fold lower.
